Measured values published in patent US20080166766A1, “Genetic incorporation of unnatural amino acids into proteins in mammalian cells” (The Scripps Research Institute, priority 2006, published 2008).

Tests used:
[1] = test system: Invitrogen™ T-REx™ CHO cells; experiment: Amber suppression of GFP37TAG: full-length GFP expression by Western blot in T-REx CHO cells; type: cell-based, Chinese hamster; details: BstRNACUA^Tyr + EcTyrRS variant, unnatural amino acid in media (plpa 8 mM), 24 hours
Protocol: (§1) The ability of the six EcTyrRS variants together with BstRNACUA^Tyr to suppress the amber codon in GFP37TAG was then tested in the presence and absence of unnatural amino acids in the growth media. Transient transfection of cells with plasmids was carried out as described for wild type EcTyrRS. Six hours after transfection, the media were replaced by the fresh media containing 1 μg/ml tetracycline and supplemented with the corresponding unnatural amino acid (pMpa, 10 mM; pApa, 10 mM; pBpa, 1 mM; plpa, 8 mM; pAzpa, 5 mM; or pPpa, 1 mM). Cells were then grown 24 hours for T-REx™ CHO cell lines and 48 hours for T-REx™ 293 cell lines before harvesting. In both T-REx™ CHO and 293 cells, the expression of full length GFP37TAG was dependent upon the presence of unnatural amino acids in the growth media as indicated in FIG. 2 and FIG. 3. […]
(§2) For Western blot analysis, harvested cells were lysed in RIPA buffer (Upstate Biotechnology/Millipore) with a 1:100 dilution of protease inhibitor cocktail (Sigma). […] Chemiluminescence was then detected with PIERCE ECL Western Blotting substrate. For T-REx™ 293 cells, the membranes were probed with anti-His-HRP (Invitrogen™; 1:5000 dilution) and then detected with PIERCE ECL Western Blotting substrate.

[2] = test system: Invitrogen™ T-REx™ 293 cells; experiment: Amber suppression of GFP37TAG: full-length GFP expression by Western blot in T-REx 293 cells; type: cell-based, human; details: BstRNACUA^Tyr + EcTyrRS variant, unnatural amino acid in media (plpa 8 mM), 48 hours
Protocol: as §1, §2

T-REx™ 293 cells = experiment: Cellular toxicity of unnatural amino acid in growth media; type: cell-based; details: 8 mM in growth media
T-REx™ CHO cells = experiment: Yield of purified mutant GFP containing unnatural amino acid (pSWAN two-plasmid system); type: cell-based, Chinese hamster; details: pMpa 10 mM, pApa 10 mM, pBpa 1 mM, pAzpa 5 mM, pPpa 1 mM in media, anti-myc column purified
Description: The pMpaRS gene was inserted directly after the non-regulated CMV promoter for efficient and continuous expression of pMpaRS. Another plasmid (pSWAN-GFP37TAG in FIG. 4B) containing both three tandem repeats of the BstRNACUA^Tyr gene and the GFP37TAG gene was also constructed. The gene encoding GFP37TAG was inserted after a Tet-regulated CMV promoter to minimize potential read-through of the nonsense amber codon caused by endogenous amber suppression in mammalian cells. These two plasmids were then assayed for their suppression efficiency. Because both plasmids contain three tandem repeats of the BstRNACUA^Tyr gene, varying the ratio of the two plasmids to increase the suppression level is not expected to change the total amount of the BstRNACUA^Tyr gene transfected into cells. Under optimized transfection conditions (0.5 μg of pSWAN-pMpaRS and 2.5 μg pSWAN-GFP37TAG per 2×10^6 cells), the suppression level is roughly two-fold higher than that using the three plasmids pUC18-3BstRNACUA^Tyr, pcDNA4-pMpaRS, and pcDNA4-GFP37TAG (the suppression level was determined by the number of fluorescent cells). Cells were grown for 1-2 days after induction and kept viable before harvesting. The yield of mutant GFP containing pMpa (GFP-pMpa) was also quantified. In the presence of 10 mM pMpa in the growth media, 1 μg of mutant GFP can be obtained from 2×10^7 adhesive T-REx™ CHO cells.
Transient transfection of T-REx™ CHO and 293 cells with the pSWAN-EcTyrRS variants and pSWAN-GFP37TAG (0.5 μg of pSWAN-EcTyrRS variant and 2.5 μg of pSWAN-GFP37TAG per 2×10^6 cells) all afforded roughly two-fold higher suppression levels than for the three plasmids pUC18-3BstRNACUA^Tyr, pcDNA4-EcTyrRS variant, and pcDNA4-GFP37TAG (with the exception of the pIpa specific variant). Mutant GFPs containing pApa, pBpa, pAzpa or pPpa were also expressed in T-REx™ CHO cells transfected with the pSWAN-EcTyrRS variants and pSWAN-GFP37TAG and grown in media containing the corresponding unnatural amino acid (pApa, 10 mM; pBpa, 1 mM; pAzpa, 5 mM; or pPpa, 1 mM) for 1-2 days, and purified using an anti-myc antibody column. The yields of the mutant proteins containing pApa and pAzpa were close to that for pMpa (˜1 μg per 2×10^7 cells), and the yields of mutant proteins containing pBpa and pPpa were somewhat lower (˜0.7 μg per 2×10^7 cells). Because the expression levels of EcTyrRS variants in T-REx™ CHO cells are similar, the lower yield of the mutant proteins containing pBpa and pPpa may be due to the low concentrations of unnatural amino acids in the media.
pSWAN-EcTyrRS variants and pSWAN-GFP37TAG were used to express mutant GFPs containing unnatural amino acids. T-REx™ CHO cells (Invitrogen™) were grown in 75 cm^2 tissue culture flasks (BD Biosciences) to 80-90% confluency and transfected with 2 μg of pSWAN-EcTyrRS and 10 μg pSWAN-GFP37TAG using […] FuGENE® 6. After overnight incubation, the media were changed to the fresh media containing the unnatural amino acid (pMpa, 10 mM; pApa, 10 mM; pBpa, 1 mM; pAzpa, 5 mM; and pPpa, 1 mM) and 1 μg/ml tetracycline. Cells were then grown for 1-2 days at 37° C. before harvesting, and then lysed with RIPA lysis buffer. The supernatant from the cell lysate was dialyzed against and equilibrated with PBS buffer before loading onto an anti-myc antibody agarose column (Sigma). The column was washed with 15 column volumes of PBS buffer and then eluted with 0.1 M ammonium hydroxide. The purified proteins were neutralized with 0.1 M acetic acid and analyzed by SDS-PAGE. […]

position 37 of GFP = experiment: Fidelity of unnatural amino acid incorporation by mass spectrometry (nano-RP LC/MS/MS, ESI TOF-MS); details: for wild type peptide signals in tandem MS of mutant GFP sample: nano-RP LC/MS/MS of tryptic fragments, mutant GFP from T-REx CHO cells
Description: To further characterize GFP-pMpa, the mutant protein was expressed in T-REx™ CHO cells transiently transfected with both pSWAN-pMpaRS and pSWAN-GFP37TAG. The protein was purified using an anti-myc antibody agarose column and then separated by SDS-PAGE. The GFP-pMpa band from the SDS-PAGE gel was digested with trypsin and analyzed by nanoscale reversed-phase liquid chromatography/mass spectrometry/mass spectrometry (nano-RP LC/MS/MS). In parallel, wild type GFP was purified from cells transfected with pcDNA4-GFP and subjected to the same analysis.
Proteolysis of affinity purified proteins (performed for wild-type and pBpa samples) was carried out by overnight incubation of proteins at 37° C. with sequencing-grade modified trypsin (Promega) using a substrate/enzyme ratio of 10:1 (wt/wt) based on the estimated protein concentration in 100 mM triethylammonium bicarbonate buffer (pH 8.5). In-gel digestions (performed for pMpa, pAzpa, pApa, and pPpa samples) were performed according to a modified EMBL procedure (see the website for EMBL, Heidelberg, Germany, Bioanalytical Research Group). Briefly, gel slices were excised to approximately 1 mm×1 mm cubes, washed for 5 minutes with water, 15 minutes with acetonitrile, and dried in a vacuum centrifuge before being rehydrated at 0° C. for 30 minutes with 12.5 ng/μl of sequencing-grade modified trypsin in 50 mM triethylammonium bicarbonate buffer (pH 8.5). Excess buffer was removed and 20 μl of 50 mM triethylammonium bicarbonate buffer (pH 8.5) was added to the gel slices before incubating at 37° C. overnight. Peptides were extracted from the gel slices as described in the protocol.
Nano-RP LC/MS/MS was performed with an HPLC pump, autosampler (Agilent Technologies, Palo Alto, Calif.), and an LTQ Orbitrap hybrid mass spectrometer (ThermoElectron, San Jose, Calif.). Tryptic digests were loaded with a pressure bomb onto a 75 μm i.d. precolumn packed with 4 cm of 5-μm Monitor C18 particles (Column Engineering, Ontario, Calif.) at a flow rate of approximately 2 μl/min. The precolumn was then connected to the HPLC pump and after several minutes of washing with solvent A the analytical column with integrated emitter tip (360 μm O.D.×75 μm i.d; 10 cm of 5 μM C18, ˜5-μm tip) was connected in series. The chromatographic profile was from 100% solvent A (0.1% aqueous acetic acid) to 50% solvent B (0.1% acetic acid in acetonitrile) in 40 min; the flow rate through the analytical column was ca. 100 nl/min.
For data-dependent experiments, the mass spectrometer was programmed to first record a high-resolution Orbitrap scan then a full-scan ion trap spectrum (m/z 500-2,000). This was followed by 10 data-dependent MS/MS scans (relative collision energy=35%; 3-Da isolation window) triggered of the ion-trap scan and finally two targeted MS/MS scans. The first targeted MS/MS scan was set to isolate and fragment the doubly charged precursor ion of the predicted unnatural amino acid modified peptide
at m/z 752.3. The raw data were searched against the MSDB database using MASCOT (Matrixscience, London, UK) for protein identification and to find the scans containing the target peptides with the unnatural amino acids as variable modification. To estimate fidelity at Y*37 of GFP-pMpa, single ion chromatograms (doubly charged precursor ions at m/z 752.3 for the wt and 759.3 for pMpa) and selected ion chromatograms (y9, y11, and y12) were integrated using the Xcalibur software package (ThermoElectron, San Jose, Calif.).
Intact protein mass spectra were acquired on an automated LC/MS system (Waters, Milford, Mass.) consisting of a capillary LC with auto-sampler and a QTOF2 mass spectrometer. GFP-pMpa (0.1 mg/ml) was loaded onto a reversed-phase protein Captrap (Michrom Bioresources, Auburn, Calif.) for desalting with 0.1% acetic acid in water and eluted with 80% acetonitrile/0.1% acetic acid at 5 μl/min into the ESI source of the mass spectrometer. […]

| SMILES | yield of mutant GFP containing the unnatural amino acid (T-REx™ CHO cells) | wild type peptide signals in tandem MS of mutant GFP sample (position 37 of GFP) | also measured |
| --- | --- | --- | --- |
| N[C@@H](Cc1ccc(I)cc1)C(=O)O [plpa, p-iodophenylalanine] | – | – | expression of full length GFP37TAG [1]: low expression level; expression of full length GFP37TAG [2]: no GFP expression; time until cells die (cellular toxicity) (T-REx™ 293 cells): 6 h |
| C#CCOc1ccc(C[C@H](N)C(=O)O)cc1 [pPpa, p-propargyloxyphenylalanine] | ~0.7 μg per 2×10^7 cells | No wild type signals could be detected | – |
| N[C@@H](Cc1ccc(C(=O)c2ccccc2)cc1)C(=O)O [pBpa, p-benzoylphenylalanine] | ~0.7 μg per 2×10^7 cells | trace amount of the wild type peptide | – |
| CC(=O)c1ccc(C[C@H](N)C(=O)O)cc1 [pApa, p-acetylphenylalanine] | ~1 μg per 2×10^7 cells | No wild type signals could be detected | – |
| COc1ccc(C[C@H](N)C(=O)O)cc1 [pMpa, p-methoxyphenylalanine] | 1 μg per 2×10^7 cells | – | purity estimate from the three most abundant fragment ions (y9, y11, y12) in tandem MS (position 37 of GFP; GFP-pMpa from T-REx CHO cells): 99.93%; fidelity for incorporation (integration of single ion chromatograms of precursor ions) (position 37 of GFP; GFP-pMpa from T-REx CHO cells, tryptic peptide […]*GK): > 99.9%; wild type GFP signals in intact protein ESI TOF-MS (position 37 of GFP; anti-myc purified GFP-pMpa, charge-state deconvoluted spectrum): No wild type GFP signals |
